In patent publication US9175003B2, “Substituted azoanthracene derivatives and intermediates for preparation thereof” (TransTech Pharma, LLC, priority 2009, dated 2015) one finds EC50 data, which are given here for 17 compounds.

Structures are written as SMILES.

The target in the assay is human GLP-1 receptor (Homo sapiens (Human), UniProt P43220). Conditions: read-out: Mean EC50; cAMP, HTRF detection, 30 min at 37° C., HEK-293 cells expressing cloned human GLP-1 receptor. For orientation: TR-FRET usually uses a lanthanide donor and a delayed reading to cut background.
human GLP-1 receptor, sequence (P43220 24-463): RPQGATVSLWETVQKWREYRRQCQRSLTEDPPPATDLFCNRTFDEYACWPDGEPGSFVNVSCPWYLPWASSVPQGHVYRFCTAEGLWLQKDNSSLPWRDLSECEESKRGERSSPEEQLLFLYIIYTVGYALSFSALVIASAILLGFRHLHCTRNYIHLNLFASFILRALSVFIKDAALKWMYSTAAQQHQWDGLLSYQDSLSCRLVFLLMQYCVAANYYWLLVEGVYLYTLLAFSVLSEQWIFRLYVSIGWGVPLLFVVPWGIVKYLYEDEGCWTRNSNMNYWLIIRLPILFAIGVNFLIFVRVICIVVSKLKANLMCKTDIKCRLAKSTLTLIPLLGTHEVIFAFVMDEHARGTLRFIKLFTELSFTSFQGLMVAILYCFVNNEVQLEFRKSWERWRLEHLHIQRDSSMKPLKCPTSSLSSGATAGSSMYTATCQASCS
One may read the EC50 as the concentration at which the effect is half-maximal. For `Cc1nc(C(=O)N2Cc3cc4c(cc3C[C@H]2C(=O)N[C@@H](Cc2ccc(-c3ccnc(C)c3C)cc2)C(=O)O)OC[C@H](c2ccc(OCc3cccc(Cl)c3Cl)cc2)O4)c(C)o1` [Example 361, (S)-2-{[(3S,8S)-3-[4-(2,3-Dichloro-benzyloxy)-phenyl]-7-(2,5-dimethyl-oxazole-4-carbonyl)-2,3,6,7,8,9-hexahydro-[1,4]dioxino[2,3-g]isoquinoline-8-carbonyl]-amino}-3-[4-(2,3-dimethyl-pyridin-4-yl)phenyl]-propionic acid], the EC50 was determined as 89 nM.

For `Cc1nc(C(=O)N2Cc3cc4c(cc3C[C@H]2C(=O)N[C@@H](Cc2ccc(-c3ccnc(C)c3C)cc2)C(=O)O)OC[C@H](c2ccc(OCc3cc(Cl)ccc3Cl)cc2)O4)c(C)o1` [Example 362, (S)-2-{[(3S,8S)-3-[4-(2,5-Dichloro-benzyloxy)-phenyl]-7-(2,5-dimethyl-oxazole-4-carbonyl)-2,3,6,7,8,9-hexahydro-[1,4]dioxino[2,3-g]isoquinoline-8-carbonyl]-amino}-3-[4-(2,3-dimethyl-pyridin-4-yl)-phenyl]-propionic acid], the concentration giving a half-maximal response (EC50) came to 12 nM.

For `Cc1nccc(-c2ccc(C[C@H](NC(=O)[C@@H]3Cc4cc5c(cc4CN3C(=O)N[C@H](C)c3ccccc3)O[C@@H](c3ccc(OCc4cc(F)cc(F)c4)cc3)CO5)C(=O)O)cc2)c1C` [Example 365, (S)-2-{[(3S,8S)-3-[4-(3,5-Difluoro-benzyloxy)-phenyl]-7-((R)-1-phenyl-ethylcarbamoyl)-2,3,6,7,8,9-hexahydro-[1,4]dioxino[2,3-g]isoquinoline-8-carbonyl]-amino}-3-[4-(2,3-dimethyl-pyridin-4-yl)-phenyl]-propionic acid], the concentration for a half-maximal effect (EC50) was found to be 95 nM. For the compound `Cc1nccc(-c2ccc(C[C@H](NC(=O)[C@@H]3Cc4cc5c(cc4CN3C(=O)N[C@H](C)c3ccccc3)O[C@@H](c3ccc(OCc4cccc(Cl)c4Cl)cc3)CO5)C(=O)O)cc2)c1C` [Example 369, (S)-2-{[(3S,8S)-3-[4-(2,3-Dichloro-benzyloxy)-phenyl]-7-((R)-1-phenyl-ethylcarbamoyl)-2,3,6,7,8,9-hexahydro-[1,4]dioxino[2,3-g]isoquinoline-8-carbonyl]-amino}-3-[4-(2,3-dimethyl-pyridin-4-yl)-phenyl]-propionic acid], the concentration giving a half-maximal response (EC50) was 112 nM. The same measure for `Cc1nccc(-c2ccc(C[C@H](NC(=O)[C@@H]3Cc4cc5c(cc4CN3C(=O)N[C@H](C)c3ccccc3)O[C@@H](c3ccc(OCc4cc(Cl)ccc4Cl)cc3)CO5)C(=O)O)cc2)c1C` [Example 370, (S)-2-{[(3S,8S)-3-[4-(2,5-Dichloro-benzyloxy)-phenyl]-7-((R)-1-phenyl-ethylcarbamoyl)-2,3,6,7,8,9-hexahydro-[1,4]dioxino[2,3-g]isoquinoline-8-carbonyl]-amino}-3-[4-(2,3-dimethyl-pyridin-4-yl)-phenyl]-propionic acid]: 62 nM. Turning to `Cc1nc(C(=O)N2Cc3cc4c(cc3C[C@H]2C(=O)N[C@@H](Cc2ccc(-c3ccnc(C)c3C)cc2)C(=O)O)OC[C@H](c2ccc(OCCc3ccc(Cl)cc3)cc2)O4)c(C)o1` [Example 371, (S)-2-{[(3S,8S)-3-{4-[2-(4-Chloro-phenyl)-ethoxy]-phenyl}-7-(2,5-dimethyl-oxazole-4-carbonyl)-2,3,6,7,8,9-hexahydro-[1,4]dioxino[2,3-g]isoquinoline-8-carbonyl]-amino}-3-[4-(2,3-dimethyl-pyridin-4-yl)-phenyl]-propionic acid], the EC50 is 36 nM.

For `Cc1nc(C(=O)N2Cc3cc4c(cc3C[C@H]2C(=O)N[C@@H](Cc2ccc(-c3ccnc(C)c3C)cc2)C(=O)O)OC[C@H](c2ccc(O[C@H]3CC[C@H](C(C)(C)C)CC3)cc2)O4)c(C)o1` [Example 372, (S)-2-{[(3S,8S)-3-[4-(trans-4-tert-Butyl-cyclohexyloxy)-phenyl]-7-(2,5-dimethyl-oxazole-4-carbonyl)-2,3,6,7,8,9-hexahydro-[1,4]dioxino[2,3-g]isoquinoline-8-carbonyl]-amino}-3-[4-(2,3-dimethyl-pyridin-4-yl)-phenyl]-propionic acid], the EC50 is 64 nM.

Consider `CC[C@H]1CC[C@H](Oc2ccc([C@H]3COc4cc5c(cc4O3)CN(C(=O)c3nc(C)oc3C)[C@H](C(=O)N[C@@H](Cc3ccc(-c4ccnc(C)c4C)cc3)C(=O)O)C5)cc2)CC1` [Example 373, (S)-2-({(3S,8S)-7-(2,5-Dimethyl-oxazole-4-carbonyl)-3-[-4-(trans-4-ethyl-cyclohexyloxy)-phenyl]-2,3,6,7,8,9-hexahydro-[1,4]dioxino[2,3-g]isoquinoline-8-carbonyl}-amino)-3-[4-(2,3-dimethyl-pyridin-4-yl)-phenyl]-propionic acid], for which the EC50 stood at 187 nM. For `Cc1nc(C(=O)N2Cc3cc4c(cc3C[C@H]2C(=O)N[C@@H](Cc2ccc(-c3ccnc(C)c3C)cc2)C(=O)O)OC[C@H](c2ccc(OC3CCC(Cl)CC3)cc2)O4)c(C)o1` (stereo partly drawn) [Example 375, (S)-2-{[(3S,8S)-3-[4-(4-Chloro-cyclohexyloxy)-phenyl]-7-(2,5-dimethyl-oxazole-4-carbonyl)-2,3,6,7,8,9-hexahydro-[1,4]dioxino[2,3-g]isoquinoline-8-carbonyl]-amino}-3-[4-(2,3-dimethyl-pyridin-4-yl)-phenyl]-propionic acid], the EC50 is 50 nM. The same measure for `Cc1nc(C(=O)N2Cc3cc4c(cc3C[C@H]2C(=O)N[C@@H](Cc2ccc(-c3ccnc(C)c3C)cc2)C(=O)O)OC[C@H](c2ccc(OCc3cncc(Cl)c3)cc2)O4)c(C)o1` [Example 376, (S)-2-{[(3S,8S)-3-[4-(5-Chloro-pyridin-3-ylmethoxy)-phenyl]-7-(2,5-dimethyl-oxazole-4-carbonyl)-2,3,6,7,8,9-hexahydro-[1,4]dioxino[2,3-g]isoquinoline-8-carbonyl]-amino}-3-[4-(2,3-dimethyl-pyridin-4-yl)-phenyl]-propionic acid]: 38 nM; for `Cc1nc(C(=O)N2Cc3cc4c(cc3C[C@H]2C(=O)N[C@@H](Cc2ccc(-c3ccnc(C)c3C)cc2)C(=O)O)OC[C@H](c2ccc(OCCc3ccccc3)cc2)O4)c(C)o1` [Example 377, (S)-2-{[(3S,8S)-7-(2,5-Dimethyl-oxazole-4-carbonyl)-3-(4-phenethyloxy-phenyl)-2,3,6,7,8,9-hexahydro-[1,4]dioxino[2,3-g]isoquinoline-8-carbonyl]-amino}-3-[4-(2,3-dimethyl-pyridin-4-yl)-phenyl]-propionic acid]: 49 nM.

On to `Cc1nc(C(=O)N2Cc3cc4c(cc3C[C@H]2C(=O)N[C@@H](Cc2ccc(-c3ccnc(C)c3C)cc2)C(=O)O)OC[C@H](c2ccc(OCC3(c5ccc(Cl)cc5)CC3)cc2)O4)c(C)o1` [Example 378, (S)-2-{[(3S,8S)-3-{4-[1-(4-Chloro-phenyl)-cyclopropylmethoxy]-phenyl}-7-(2,5-dimethyl-oxazole-4-carbonyl)-2,3,6,7,8,9-hexahydro-[1,4]dioxino[2,3-g]isoquinoline-8-carbonyl]-amino}-3-[4-(2,3-dimethyl-pyridin-4-yl)-phenyl]-propionic acid], for which the EC50 came out at 282 nM. As for `Cc1nc(C(=O)N2Cc3cc4c(cc3C[C@H]2C(=O)N[C@@H](Cc2ccc(-c3ccnc(C)c3C)cc2)C(=O)O)OC[C@H](c2ccc(OCC3CCCC3)cc2)O4)c(C)o1` [Example 379, (S)-2-{[(3S,8S)-3-(4-cyclopentylmethoxy-phenyl)-7-(2,5-dimethyl-oxazole-4-carbonyl)-2,3,6,7,8,9-hexahydro-[1,4]dioxino[2,3-g]isoquinoline-8-carbonyl]-amino}-3-[4-(2,3-dimethyl-pyridin-4-yl)-phenyl]-propionic acid], the EC50 was 152 nM. For `Cc1nc(C(=O)N2Cc3cc4c(cc3C[C@H]2C(=O)N[C@@H](Cc2ccc(-c3ccnc(C)c3C)cc2)C(=O)O)OC[C@H](c2ccc(OCCC(C)(C)C)cc2)O4)c(C)o1` [Example 380, (S)-2-{[(3S,8S)-3-[4-(3,3-dimethyl-butoxy)-phenyl]-7-(2,5-dimethyl-oxazole-4-carbonyl)-2,3,6,7,8,9-hexahydro-[1,4]dioxino[2,3-g]isoquinoline-8-carbonyl]-amino}-3-[4-(2,3-dimethyl-pyridin-4-yl)-phenyl]-propionic acid] the value was 213 nM. For `Cc1nc(C(=O)N2Cc3cc4c(cc3C[C@H]2C(=O)N[C@@H](Cc2ccc(-c3ccnc(C)c3C)cc2)C(=O)O)OC[C@H](c2ccc(O[C@H]3CC[C@@H](C)CC3)cc2)O4)c(C)o1` [Example 381, (S)-2-({(3S,8S)-7-(2,5-Dimethyl-oxazole-4-carbonyl)-3-[4-(cis-4-methyl-cyclohexyloxy)-phenyl]-2,3,6,7,8,9-hexahydro-[1,4]dioxino[2,3-g]isoquinoline-8-carbonyl}-amino)-3-[4-(2,3-dimethyl-pyridin-4-yl)-phenyl]-propionic acid] the value was 313 nM; for `Cc1nc(C(=O)N2Cc3cc4c(cc3C[C@H]2C(=O)N[C@@H](Cc2ccc(-c3ccnc(C)c3C)cc2)C(=O)O)OC[C@H](c2ccc(O[C@H]3CC[C@H](C)CC3)cc2)O4)c(C)o1` [Example 382, (S)-2-({(3S,8S)-7-(2,5-Dimethyl-oxazole-4-carbonyl)-3-[4-(trans-4-methyl-cyclohexyloxy)-phenyl]-2,3,6,7,8,9-hexahydro-[1,4]dioxino[2,3-g]isoquinoline-8-carbonyl}-amino)-3-[4-(2,3-dimethyl-pyridin-4-yl)-phenyl]-propionic acid], 106 nM. For `Cc1nc(C(=O)N2Cc3cc4c(cc3C[C@H]2C(=O)N[C@@H](Cc2ccc(-c3ccnc(C)c3C)cc2)C(=O)O)OC[C@H](c2ccc(OCc3ccc(Cl)cc3Cl)cc2)O4)c(C)o1` [Example 383, (S)-2-{[(3S,8S)-3-[4-(2,4-dichloro-benzyloxy)-phenyl]-7-(2,5-dimethyl-oxazole-4-carbonyl)-2,3,6,7,8,9-hexahydro-[1,4]dioxino[2,3-g]isoquinoline-8-carbonyl]-amino}-3-[4-(2,3-dimethyl-pyridin-4-yl)-phenyl]-propionic acid] the value was 138 nM.
